In ChEMBL document CHEMBL1201862, “PubChem BioAssay data set” (2004):
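Dose response: 5 concentrations. Exposure: 48 h. Format: 96-well plates. Endpoint: linear interpolation; highest concentration if not reached. GI50 is the concentration that inhibits growth by half.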 Active and inactive are the calls of the source. No stated cut-off is given here; in the data, active = GI50 up to about 1.1 µM and inactive = higher.

Legend:
Assay in all cases: NCI tumour cell line growth inhibition, 48 h
SK-MEL-5 = test system: SK-MEL-5
SR = test system: SR
SNB-75 = test system: SNB-75
Hs-578T = test system: Hs-578T
SK-MEL-28 = test system: SK-MEL-28
OVCAR-4 = test system: OVCAR-4
PC-3 = test system: PC-3
OVCAR-5 = test system: OVCAR-5
MOLT-4 = test system: MOLT-4
CAKI-1 = test system: CAKI-1
HCT-15 = test system: HCT-15
M14 = test system: M14
OVCAR-3 = test system: OVCAR-3
HCT-116 = test system: HCT-116
HCC 2998 = test system: HCC 2998
RXF 393 = test system: RXF 393
NCI-H23 = test system: NCI-H23
IGROV-1 = test system: IGROV-1
SNB-19 = test system: SNB-19
UACC-257 = test system: UACC-257
OVCAR-8 = test system: OVCAR-8
SK-OV-3 = test system: SK-OV-3
SF-295 = test system: SF-295
786-0 = test system: 786-0
A549 = test system: A549
SF-268 = test system: SF-268
MDA-MB-435 = test system: MDA-MB-435
COLO 205 = test system: COLO 205
HT-29 = test system: HT-29
SW-620 = test system: SW-620
NCI-H522 = test system: NCI-H522
U-251 = test system: U-251
UACC-62 = test system: UACC-62
SF-539 = test system: SF-539
UO-31 = test system: UO-31
EKVX = test system: EKVX
HOP-92 = test system: HOP-92
NCI-H460 = test system: NCI-H460
MDA-MB-231 = test system: MDA-MB-231
HOP-62 = test system: HOP-62
SN12C = test system: SN12C
KM12 = test system: KM12
DU-145 = test system: DU-145
NCI/ADR-RES = test system: NCI/ADR-RES
ACHN = test system: ACHN
BT-549 = test system: BT-549
MDA-N = test system: MDA-N
SK-MEL-2 = test system: SK-MEL-2
CCRF-CEM = test system: CCRF-CEM
MCF7 = test system: MCF7
K562 = test system: K562
RPMI-8226 = test system: RPMI-8226
T47D = test system: T47D
A498 = test system: A498
TK-10 = test system: TK-10
NCI-H226 = test system: NCI-H226

Measured: GI50

COC(=O)C(C)(C)OCc1ccc(C2NC(=O)N(c3cccc(Cl)c3)C(=O)N2c2cccc(Cl)c2)cc1 (stereo unspecified)
19.6 µM: HCT-15
active: SR 0.52 µM | SNB-75 0.34 µM
inactive: SK-MEL-5 10.7 µM | Hs-578T 3.96 µM | SK-MEL-28 > 100 µM | OVCAR-4 57.5 µM | PC-3 20.2 µM | OVCAR-5 > 100 µM | MOLT-4 8.07 µM | CAKI-1 35.2 µM | M14 65.3 µM | OVCAR-3 56.2 µM | HCT-116 36.6 µM | HCC 2998 40.6 µM | RXF 393 26.4 µM | NCI-H23 1.26 µM | IGROV-1 22 µM | SNB-19 > 100 µM | UACC-257 31.8 µM | OVCAR-8 32.6 µM | SK-OV-3 54.3 µM | SF-295 31 µM | 786-0 40.9 µM | A549 35.2 µM | SF-268 26.1 µM | MDA-MB-435 46 µM | COLO 205 28.6 µM | HT-29 26.1 µM | SW-620 75.5 µM | NCI-H522 10.6 µM | U-251 58.5 µM | UACC-62 36.6 µM | SF-539 50.1 µM | UO-31 25.3 µM | EKVX 10.5 µM | HOP-92 15.1 µM | NCI-H460 29.4 µM | MDA-MB-231 55 µM | HOP-62 99.8 µM | SN12C 29.2 µM | KM12 23.7 µM | DU-145 59.7 µM | NCI/ADR-RES 17.1 µM | ACHN 47.9 µM | BT-549 51.1 µM | MDA-N 55.8 µM | SK-MEL-2 52.8 µM | CCRF-CEM 10.6 µM | MCF7 35.7 µM | K562 7.45 µM | RPMI-8226 9.16 µM

COC(=O)[C@@]12OC[C@]34[C@H]([C@@H](O)[C@@H]1O)[C@@]1(C)CC(=O)C(OC(C)=O)=C(C)[C@@H]1C[C@H]3OC(=O)[C@H](OC(=O)C=C(C)C)[C@@H]24
active: Hs-578T 0.857 µM | OVCAR-4 0.752 µM | T47D 0.977 µM | PC-3 0.948 µM | A498 0.43 µM | M14 0.755 µM | RXF 393 0.75 µM | NCI-H23 0.574 µM | SNB-19 0.627 µM | UACC-257 0.557 µM | OVCAR-8 0.743 µM | SF-295 0.82 µM | 786-0 0.895 µM | A549 0.838 µM | SF-268 0.853 µM | MDA-MB-435 0.738 µM | COLO 205 0.764 µM | TK-10 1 µM | HT-29 0.543 µM | SW-620 0.914 µM | NCI-H226 0.746 µM | UACC-62 0.721 µM | HOP-92 0.813 µM | HOP-62 0.607 µM | KM12 0.596 µM | MDA-N 0.714 µM | SK-MEL-2 0.656 µM
1.77 µM: HCT-15
inactive: SNB-75 1.44 µM | OVCAR-5 1.75 µM | CAKI-1 2.7 µM | UO-31 2.64 µM | EKVX 1.44 µM | MDA-MB-231 1.81 µM | SN12C 1.17 µM | DU-145 1.34 µM | NCI/ADR-RES 12.8 µM | ACHN 1.82 µM | BT-549 1.52 µM
